Laboratory results reported in PMC9007913 (Angewandte Chemie (International ed. in English), 2022).

Test system: ID8 cells
Experiment: Inhibition assay of cellular uptake of OCTL14
Assay type: cell-based, murine
Details: pre-blocked 5-30 min, then 2 μM OCTL14 for 30 min

Structure (SMILES)	change in cellular uptake of OCTL14 after pretreatment with inhibitor
O=C1OC(c2ccc(O)c(S(=O)(=O)O)c2)(c2ccc(O)c(S(=O)(=O)O)c2)c2c(Br)c(Br)c(Br)c(Br)c21 [BSP, bromsulphthalein]	did not result in significant changes in cellular uptake
O=C(N/N=C/c1cc(O)c(O)cc1O)c1cc2ccccc2cc1O [Dyngo 4a]	did not result in any appreciable change in cellular uptake
CN(C)C(=O)CCSC(SCCC(=O)O)c1cccc(/C=C/c2ccc3ccc(Cl)cc3n2)c1 (stereo not shown) [MK-571]	little change in cellular uptake
O=C1NC(=NS(=O)(=O)c2cccc3ccccc23)S/C1=C\c1ccc(Br)cc1 [Pitstop 2]	did not result in any appreciable change in cellular uptake
